In patent US11420944B2, “Voltage-dependent t-type calcium channel blocker” (Nippon Chemiphar Co., Ltd., priority 2016, dated 2022) one finds IC50 data, which are given here for 24 molecules.

Molecules are shown by their SMILES. Counter-ions that a name gives are not always drawn.

T1 sequence (O95180 whole entry): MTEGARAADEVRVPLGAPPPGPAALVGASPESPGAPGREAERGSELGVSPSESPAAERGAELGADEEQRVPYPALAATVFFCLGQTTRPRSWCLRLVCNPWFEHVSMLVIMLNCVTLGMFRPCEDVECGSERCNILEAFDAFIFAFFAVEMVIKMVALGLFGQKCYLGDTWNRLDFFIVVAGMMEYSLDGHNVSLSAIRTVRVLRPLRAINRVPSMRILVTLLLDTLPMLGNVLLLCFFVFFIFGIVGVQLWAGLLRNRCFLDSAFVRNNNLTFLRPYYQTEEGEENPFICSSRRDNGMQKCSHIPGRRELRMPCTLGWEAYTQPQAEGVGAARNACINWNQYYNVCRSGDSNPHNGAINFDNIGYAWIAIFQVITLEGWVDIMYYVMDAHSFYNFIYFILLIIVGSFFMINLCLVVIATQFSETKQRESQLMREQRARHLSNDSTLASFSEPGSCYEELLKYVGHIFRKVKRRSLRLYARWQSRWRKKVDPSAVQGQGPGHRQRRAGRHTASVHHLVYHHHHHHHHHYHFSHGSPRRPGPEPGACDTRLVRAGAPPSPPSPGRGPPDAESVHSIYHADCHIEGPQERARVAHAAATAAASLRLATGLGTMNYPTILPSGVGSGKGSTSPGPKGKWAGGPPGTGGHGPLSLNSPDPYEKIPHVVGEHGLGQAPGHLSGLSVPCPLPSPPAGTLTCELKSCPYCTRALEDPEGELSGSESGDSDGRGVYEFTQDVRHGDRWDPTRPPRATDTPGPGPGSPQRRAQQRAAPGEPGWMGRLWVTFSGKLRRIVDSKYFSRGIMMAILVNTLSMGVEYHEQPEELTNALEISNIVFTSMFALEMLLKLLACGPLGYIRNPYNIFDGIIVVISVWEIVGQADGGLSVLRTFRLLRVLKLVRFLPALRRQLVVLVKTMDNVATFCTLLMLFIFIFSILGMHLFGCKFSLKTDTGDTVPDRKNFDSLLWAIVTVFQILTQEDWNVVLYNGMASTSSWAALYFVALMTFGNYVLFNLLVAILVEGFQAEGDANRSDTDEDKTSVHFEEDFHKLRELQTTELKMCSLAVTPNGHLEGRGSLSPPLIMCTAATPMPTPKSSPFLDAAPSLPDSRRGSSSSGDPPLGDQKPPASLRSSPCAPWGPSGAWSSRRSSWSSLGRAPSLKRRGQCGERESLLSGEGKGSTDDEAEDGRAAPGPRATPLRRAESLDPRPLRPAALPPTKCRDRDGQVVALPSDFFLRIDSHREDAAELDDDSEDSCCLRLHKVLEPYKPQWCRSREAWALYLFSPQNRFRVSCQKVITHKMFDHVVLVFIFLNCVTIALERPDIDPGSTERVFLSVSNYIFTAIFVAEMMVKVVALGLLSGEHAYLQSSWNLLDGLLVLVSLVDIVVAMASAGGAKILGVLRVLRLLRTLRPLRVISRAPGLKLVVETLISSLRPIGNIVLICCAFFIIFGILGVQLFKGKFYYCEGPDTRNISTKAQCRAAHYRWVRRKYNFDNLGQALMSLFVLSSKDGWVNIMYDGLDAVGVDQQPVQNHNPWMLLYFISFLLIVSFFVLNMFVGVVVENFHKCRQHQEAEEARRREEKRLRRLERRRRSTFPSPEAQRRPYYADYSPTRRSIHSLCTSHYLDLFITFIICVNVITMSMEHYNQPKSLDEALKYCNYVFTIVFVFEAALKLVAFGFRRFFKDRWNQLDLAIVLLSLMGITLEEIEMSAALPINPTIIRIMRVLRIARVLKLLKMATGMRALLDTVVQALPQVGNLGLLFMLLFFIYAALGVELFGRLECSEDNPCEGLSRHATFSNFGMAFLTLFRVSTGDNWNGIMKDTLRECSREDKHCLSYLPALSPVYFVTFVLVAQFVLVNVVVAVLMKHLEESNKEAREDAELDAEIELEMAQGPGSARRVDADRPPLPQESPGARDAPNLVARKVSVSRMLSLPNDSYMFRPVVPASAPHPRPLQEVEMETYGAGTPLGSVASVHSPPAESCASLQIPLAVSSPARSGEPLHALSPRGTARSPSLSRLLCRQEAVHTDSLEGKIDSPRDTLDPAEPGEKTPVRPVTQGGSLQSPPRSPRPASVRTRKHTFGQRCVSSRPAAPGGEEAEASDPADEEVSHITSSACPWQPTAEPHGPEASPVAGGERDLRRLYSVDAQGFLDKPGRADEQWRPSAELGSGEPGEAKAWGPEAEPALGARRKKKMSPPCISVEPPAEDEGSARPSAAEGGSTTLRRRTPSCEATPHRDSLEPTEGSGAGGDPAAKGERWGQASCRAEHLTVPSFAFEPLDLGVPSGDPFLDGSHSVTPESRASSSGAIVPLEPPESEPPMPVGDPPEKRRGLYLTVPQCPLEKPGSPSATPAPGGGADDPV

The first test concerns the target T1, human Cav3.2 channels (Homo sapiens, UniProt O95180).
T1 construct: expressed in transfected cells; host or cells: HEK293 cells (ATCC No. CRL-1573), plasmid pcDNA3.1(+)
The test can be described thus: Intracellular calcium concentration measurement (Fluo-4 AM) in stable cells expressing human Cav3.2 channels, buffer A / buffer B. It counts as cell-based. Conditions: Table 1; buffer A, equilibrium potential of potassium −92 mV; read-out: Inhibitory action of buffer A (inactivated state). The source says: Construction of Stable Cells Expressing Human Cav3.2 Channels
(1) A sequence produced by incorporating HindIII site and kozak sequence (GCCACC) into the 5′-terminal side of human Cav3.2 channel ORF (Open Reading Frame) gene and incorporating Kpnl site into the 3′-terminal side was incorporated into pcDNA3.1(+) (Thermo-Fisher Scientific, Inc., #V790-20), and the plasmid was transfected into HEK293 cells (ATCC No. CRL-1573) according to the protocol of FuGENE (registered trademark) HD Transfection Reagent (PROMEGA #E2311).
(2) Method for Measuring Intracellular Calcium Concentration
In the present measurement system, buffer A and buffer B having different potassium ion concentrations were used in order to evaluate the state-dependent Cav3.2 inhibitory action of a test compound.
Stable cell line expressing human Cav3.2 channels, which had been produced in (1), was seeded in a 96-well plate using DMEM medium including 10% FBS, and the cells were cultured for 48 hours under the conditions of 37° C. and 5% CO2. Subsequently, the medium was removed, and various wells that had been washed with a base buffer were treated with 80 μL of a fluorescent dye solution containing a mixed liquid of 22 μg of calcium fluorescence indicator Fluo-4 AM (Dojindo Laboratories Co., Ltd., #F311), 20 μL of DMSO, […] of 10% Pluronic F-127 (Thermo-Fisher Scientific, Inc., #P6866), and 4 mL of a base buffer. The cells were left to stand for 45 minutes at room temperature in the dark, and then the cells were washed with buffer A or buffer B. Solutions having various test compound concentrations and respectively containing buffer A or buffer B were added to the respective wells, the respective solutions containing DMSO at the same final concentration as that of the test compound as negative control, or containing the test compound dissolved in 100% DMSO at a final concentration of 0.1%. The cells were left to stand for another 15 minutes at room temperature in the dark, and the cells were analyzed using the following method using a microplate reader, EnVision (PerkinElmer, Inc.). First, the background fluorescence for each well was measured, subsequently an ionophore was added to the well, and the fluorescence of the baseline was measured. Subsequently, buffer A or buffer B containing added KCl at a concentration of 83.8 mM or 91.8 mM was added to each well, and an increase in fluorescence caused by a calcium influx generated by that stimulus was measured for 10 seconds. The percentage inhibition was calculated from the maximum fluorescence increment from the baseline, and the logarithmic value of the test compound concentration and the inhibitory activity were plotted to calculate the IC50 value. The analysis was carried out by measuring the fluorescence at 510 nm emitted when the cells were irradiated with exciting light at 485 nm.
Base buffer: 140 mM NaCl, 5 mM KCl, 1 mM MgCl2, 0.5 mM CaCl2, 10 mM Glucose, and 10 mM HEPES, pH 7.3
Buffer A: Equilibrium potential of potassium: −92 mV
A general note: Calcium assays in cells follow changes in intracellular calcium, usually with a dye or a luminescent sensor.
Turning to `C[C@@H](NC(=O)C1CC1c1nc2ccccc2[nH]1)c1cnn(CCC(F)(F)F)c1` (stereo partly shown) [Example 9], the IC50 is over 10000 nM.

Regarding `CC(NC(=O)C1CC1c1nc2ccccc2[nH]1)c1cn(C(=O)OC(C)(C)C)c2ccccc12` (stereo not drawn) [Example 10, Trans-3-(1-(2-(1H-benzo[d]imidazol-2-yl)cyclopropanecarboxamido)ethyl)-1H-indole-1-carboxylic acid tert-butyl ester], the IC50 was 100 to 1000 nM.

Consider `C[C@@H](NC(=O)[C@@H]1CCN(c2nc3ccccc3s2)C1)c1ccc(OCC(F)(F)F)s1` [Example 13, (R)-1-(benzo[d]thiazol-2-yl)-N—((R)-1-(5-(2,2,2-trifluoroethoxy)thiophen-2-yl)ethyl)pyrrolidine-3-carboxamide], for which the IC50 is over 10000 nM.

With `C[C@@H](NC(=O)[C@H]1CCN(CC(=O)NC(C)(C)C)C1)c1ccc(OCC(F)(F)F)s1` [Example 14, (S)-1-(2-(tert-butylamino)-2-oxoethyl)-N—((R)-1-(5-(2,2,2-trifluoroethoxy)thiophen-2-yl)ethyl)pyrrolidine-3-carboxamide hydrochloride], the IC50 is 1000 to 10000 nM.

In the case of `C[C@@H](NC(=O)[C@@H]1CCN(CC(=O)Nc2nccs2)C1)c1ccc(OCC(F)(F)F)s1` [Example 16, (R)-1-(2-oxoethyl-2-(thiazol-2-ylamino)ethyl)-N—((R)-1-(5-(2,2,2-trifluoroethoxy)thiophen-2-yl)ethyl)pyrrolidine-3-carboxamide], the IC50 lay within 100 to 1000 nM.

For the molecule `C[C@@H](NC(=O)[C@@H]1CCN(CCC(C)(C)C)C1)c1ccc(OCC(F)(F)F)s1` [Example 18, (R)-1-(3,3-dimethylbutyl)-N—((R)-1-(5-(2,2,2-trifluoroethoxy)thiophen-2-yl)ethyl)pyrrolidine-3-carboxamide hydrochloride], the IC50 was 1000 to 10000 nM.

The same test, now with this note: Table 1; buffer B, equilibrium potential of potassium −110 mV; read-out: Inhibitory action of buffer B (resting state or closed state).
Consider `CC(NC(=O)C1CC1c1nc2ccccc2[nH]1)c1cn(C(=O)OC(C)(C)C)c2ccccc12` (stereo not drawn) [Example 10, Trans-3-(1-(2-(1H-benzo[d]imidazol-2-yl)cyclopropanecarboxamido)ethyl)-1H-indole-1-carboxylic acid tert-butyl ester], for which the IC50 lay in the range of 100 to 1000 nM.

`C[C@@H](NC(=O)[C@H]1CCN(CC(=O)NC(C)(C)C)C1)c1ccc(OCC(F)(F)F)s1` [Example 14, (S)-1-(2-(tert-butylamino)-2-oxoethyl)-N—((R)-1-(5-(2,2,2-trifluoroethoxy)thiophen-2-yl)ethyl)pyrrolidine-3-carboxamide hydrochloride]: the IC50 lay within 1000 to 10000 nM.

`C[C@@H](NC(=O)[C@@H]1CCN(CC(=O)Nc2nccs2)C1)c1ccc(OCC(F)(F)F)s1` [Example 16, (R)-1-(2-oxoethyl-2-(thiazol-2-ylamino)ethyl)-N—((R)-1-(5-(2,2,2-trifluoroethoxy)thiophen-2-yl)ethyl)pyrrolidine-3-carboxamide]: the IC50 lay within 1000 to 10000 nM.

Consider `C[C@@H](NC(=O)[C@@H]1CCN(CCC(C)(C)C)C1)c1ccc(OCC(F)(F)F)s1` [Example 18, (R)-1-(3,3-dimethylbutyl)-N—((R)-1-(5-(2,2,2-trifluoroethoxy)thiophen-2-yl)ethyl)pyrrolidine-3-carboxamide hydrochloride], for which the IC50 lay within 1000 to 10000 nM.

The same test, now with this note: Tables 2 to 6; buffer A, equilibrium potential of potassium −92 mV; read-out: Inhibitory action of buffer A (inactivated state).
With `C[C@@H](NC(=O)C1CC1c1nc2ccccc2[nH]1)c1ccc(C(=O)N2CCCC2(C)C)s1` (stereo in doubt) [Example 67, Trans-2-(1H-benzo[d]imidazol-2-yl)-N—((R)-1-(5-(2,2-dimethylpyrrolidine-1-carbonyl)thiophen-2-yl)ethyl)cyclopropane-1-carboxamide], the IC50 lay in the range of 1000 to 10000 nM.

On to `C[C@@H](NC(=O)C1CC1c1nc2ccccc2[nH]1)c1ccc(C(=O)N2CCN(C)CC2)s1` (stereo in doubt) [Example 68, Trans-2-(1H-benzo[d]imidazol-2-yl)-N—((R)-1-(5-(4-methylpiperazine-1-carbonyl)thiophen-2-yl)ethyl)cyclopropane-1-carboxamide], for which the IC50 fell in the range of 1000 to 10000 nM.

For the molecule `C[C@@H](NC(=O)C1CC1c1nc2ccccc2[nH]1)c1ccc(C(=O)N2CCNCC2)s1` (stereo in doubt) [Example 75, Trans-2-(1H-benzo[d]imidazol-2-yl)-N—((R)-1-(5-(piperazine-1-carbonyl)thiophen-2-yl)ethyl)cyclopropane-1-carboxamide], the IC50 was 1000 to 10000 nM.

`C[C@@H](NC(=O)[C@@H]1C[C@H]1c1nc2ccccc2[nH]1)c1ccc(C(=O)OC(C)(C)C)s1` [Example 25B, Trans-5-((1R)-1-(2-(1H-benzo[d]imidazol-2-yl)cyclopropane-1-carboxamido)ethyl)thiophene-2-carboxylic acid tert-butyl ester]: the IC50 was in the range of 1000 to 10000 nM.

For `C[C@@H](NC(=O)[C@@H]1CCN(CC(=O)Nc2cnccn2)C1)c1ccc(OCC(F)(F)F)s1` [Example 37, (R)-1-(2-oxo-2-(pyrazin-2-ylamino)ethyl)-N—((R)-1-(5-(2,2,2-trifluoroethoxy)thiophen-2-yl)ethyl)pyrrolidine-3-carboxamide], the IC50 is 1000 to 10000 nM.

On to `C[C@@H](NC(=O)[C@@H]1CCN(c2ccc(C(F)(F)F)cn2)C1)c1ccc(OCC(F)(F)F)s1` [Example 41, (R)—N—((R)-1-(5-(2,2,2-trifluoroethoxy)thiophen-2-yl)ethyl)-1-(5-(trifluoromethyl)pyridin-2-yl)pyrrolidine-3-carboxamide], for which the IC50 lay within 1000 to 10000 nM.

As for `C[C@@H](NC(=O)[C@H]1C[C@@H]1c1nc(-c2ccccn2)c[nH]1)c1ccc(OCC(F)(F)F)s1` [Example 46, (1S,2S)-2-(4-(pyridin-2-yl)-1H-imidazol-2-yl)-N—((R)-1-(5-(2,2,2-trifluoroethoxy)thiophen-2-yl)ethyl)cyclopropane-1-carboxamide], the IC50 is 100 to 1000 nM.

With `CC(C(=O)NC12CC3CC(CC(C3)C1)C2)N1CC[C@@H](C(=O)N[C@H](C)c2cnc(OCC(F)(F)F)s2)C1` (stereo partly drawn) [Example 47, (3R)-1-(1-((adamantan-1-yl)amino)-1-oxopropan-2-yl)-N—((R)-1-(2-(2,2,2-trifluoroethoxy)thiazol-5-yl)ethyl)pyrrolidine-3-carboxamide], the IC50 was at most 100 nM.

For the molecule `C[C@@H](NC(=O)[C@H]1C[C@@H]1c1nc2ccccc2[nH]1)c1ccc2c(c1)OCO2` [Example 55, (1S,2S)—N—((R)-1-(benzo[d][1,3]dioxol-5-yl)ethyl)-2-(1H-benzo[d]imidazol-2-yl)cyclopropane-1-carboxamide], the IC50 was 100 to 1000 nM.

In the case of `O=C(N[C@@H](c1ccc(C(F)(F)F)s1)C1CCCCC1)[C@H]1C[C@@H]1c1nc2ccccc2[nH]1` [Example 59, (1S,2S)-2-(1H-benzo[d]imidazol-2-yl)-N—((R)-cyclohexyl(5-(trifluoromethyl)thiophen-2-yl)methyl)cyclopropane-1-carboxamide], the IC50 is 100 to 1000 nM.

For `O=C(N[C@@H](c1ccc(C(F)(F)F)s1)C1CC1)[C@H]1C[C@@H]1c1nc2ccccc2[nH]1` [Example 69, (1S,2S)-2-(1H-benzo[d]imidazol-2-yl)-N—((R)-cyclopropyl(5-(trifluoromethyl)thiophen-2-yl)methyl)cyclopropane-1-carboxamide], the IC50 was 100 to 1000 nM.

For `C[C@@H](NC(=O)[C@H]1C[C@@H]1c1nc2ccccc2[nH]1)c1ccc2c(c1)OCCO2` [Example 70, (1S,2S)-2-(1H-benzo[d]imidazol-2-yl)-N—((R)-1-(2,3-dihydrobenzo[b][1,4]dioxin-6-yl)ethyl)cyclopropane-1-carboxamide], the IC50 was in the range of 1000 to 10000 nM.

For the molecule `C[C@@H](NC(=O)[C@H]1C[C@@H]1c1nc2ccccc2[nH]1)c1nc(C2CC2)no1` [Example 72, (1S,2S)-2-(1H-benzo[d]imidazol-2-yl)-N—((R)-1-(3-cyclopropyl-1,2,4-oxadiazol-5-yl)ethyl)cyclopropane-1-carboxamide], the IC50 is 1000 to 10000 nM.

For `C[C@@H](NC(=O)[C@H]1C[C@@H]1c1nc2ccccc2[nH]1)c1ccc(C2CC2)o1` [Example 74, (1S,2S)-2-(1H-benzo[d]imidazol-2-yl)-N—((R)-1-(5-cyclopropylfuran-2-yl)ethyl)cyclopropane-1-carboxamide], the IC50 fell in the range of 100 to 1000 nM.

Take `COc1ccc2oc([C@@H](C)NC(=O)[C@H]3C[C@@H]3c3nc4ccccc4[nH]3)cc2c1` [Example 79, (1S,2S)-2-(1H-benzo[d]imidazol-2-yl)-N—((R)-1-(5-methoxybenzofuran-2-yl)ethyl)cyclopropane-1-carboxamide]: the IC50 lay in the range of 100 to 1000 nM.

On to `CC(NC(=O)[C@H]1C[C@@H]1c1nc2ccccc2[nH]1)c1cc2ncccc2o1` (stereo partly drawn) [Example 80, (1S,2S)-2-(1H-benzo[d]imidazol-2-yl)-N-(1-(furo[3,2-b]pyridin-2-yl)ethyl)cyclopropane-1-carboxamide], for which the IC50 was 1000 to 10000 nM.

Consider `C[C@@H](NC(=O)[C@H]1C[C@@H]1c1nc2cc(Cl)ccc2[nH]1)c1cc2cc(F)ccc2o1` [Example 81, (1S,2S)-2-(5-chloro-1H-benzo[d]imidazol-2-yl)-N—((R)-1-(5-fluorobenzofuran-2-yl)ethyl)cyclopropane-1-carboxamide], for which the IC50 is at most 100 nM.

With `C[C@@H](NC(=O)[C@H]1C[C@@H]1c1nc2ccccc2[nH]1)c1ccc(C(=O)N2CC(F)(F)C2)s1` [Example 83, (1S,2S)-2-(1H-benzo[d]imidazol-2-yl)-N—((R)-1-(5-(3,3-difluoroazetidine-1-carbonyl)thiophen-2-yl)ethyl)cyclopropane-1-carboxamide], the IC50 fell in the range of 100 to 1000 nM.
